Patent US20040106793A1, “Oxazoles for treating cytokine mediated diseases” (SmithKline Beecham Corporation, priority 1993, published 2004)

System: IL-1 produced by human monocytes
Test: Interleukin 1 (IL-1) production by LPS-stimulated human monocytes
Type: cell-based
Conditions: human peripheral blood monocytes, compound 1 h before lipopolysaccharide (50 ng/ml), 24 h at 37° C.; IL-1 in supernatant by bioassay (EL-4) or ELISA
Description: Human peripheral blood monocytes were isolated and purified from either fresh blood preparations from volunteer donors, or from blood bank buffy coats, according to the procedure of Colotta et al, J Immunol, 132, 936 (1984). These monocytes (1×10^6) were plated in 24-well plates at a concentration of 1-2 million/ml per well. The cells were allowed to adhere for 2 hours, after which time non-adherent cells were removed by gentle washing. Test compounds were then added to the cells for 1 h before the addition of lipopolysaccharide (50 ng/ml), and the cultures were incubated at 37° C. for an additional 24 h. At the end of this period, culture supernatants were removed and clarified of cells and all debris. Culture supernatants were then immediately assayed for IL-1 biological activity, either by the method of Simon et al., J. Immunol. Methods, 84, 85, (1985) (based on ability of IL-1 to stimulate a Interleukin 2 producing cell line (EL-4) to secrete IL-2, in concert with A23187 ionophore) or the method of Lee et al., J. ImmunoTherapy, 6 (1), 1-12 (1990) (ELISA assay).

| SMILES | inhibition of in vitro IL-1 produced by human monocytes |
| --- | --- |
| COc1cccc(-c2oc(C)nc2-c2ccncc2)c1 [Example 1, 5-(3-Methoxyphenyl)-2-methyl-4-(4-pyridyl)oxazole] | inhibitors |
| Cc1nc(-c2ccncc2)c(-c2ccc(F)cc2)o1 [Example 2, 5-(4-Fluorophenyl)-2-methyl-4-(4-pyridyl)oxazole] | inhibitors |
| Fc1ccc(-c2ncoc2-c2ccncc2)cc1 [Example 7, 4-(4-Fluorophenyl)-5-(4-pyridyl)oxazole] | inhibitors |
